Results published in patent US11840706B2, “Composition and method for generating a desired cell type and/or tissue type from hair follicular stem cells” (priority 2013, dated 2023).
Entries after “also recorded” stand apart in the source; their conditions may differ.

System: keratinocytes
Assay: Effect of vanadium compounds on proliferation of keratinocytes (hair follicle culture, cell count)
Assay type: cell-based
Details: 14 days culture; for amount of proliferated keratinocytes relative to the control situation: 1 mg/ml in basic SFK growth medium, 31° C., control = SFK medium lacking a vanadium compound
Experimental: Method: Hair follicles were transferred to a 24-well culture disk containing dSFK with 500 mg/ml penicillin (Life Technologies B.V. Breda, The Netherlands) and 0.25 μg/ml streptomycin (Life Technologies B.V. Breda, The Netherlands), and placed for 14 days in a culture medium at 31° C. in a humidified atmosphere containing 5% CO2. Three different culture medium were used: • Treatment group oxovanadium (OVAN): The culture medium is a composition comprising a basic SFK growth serum (purchased from the supplier SFK, Enschede The Netherlands) supplemented with either 1 mg/ml of OVAN. • Treatment group bis (maltolato) oxovanadium (BMOV): The culture medium is a composition comprising a basic SFK growth serum (purchased from the supplier SFK, Enschede The Netherlands) supplemented with either 1 mg/ml of BMOV. • Control group: The control situation consists of a composition comprising the SFK basic growth serum but without the vanadium compounds (i.e. OVAN or BMOV).
The respective culture media were carefully removed every three days and replaced by fresh culture media. The cells remained attached to the hair follicles during this culture period. After 14 days the culture medium was removed and replaced by a 0.5 mg/ml trypsin, 0.2 mg/ml EDTA (ethylene diaminetetraacetic acid) solution (Life Technologies B.V. Breda, The Netherlands), and incubated for 5 minutes at 37° C. in this medium. After this incubation period clusters of cells were released from the hair follicles. These were harvested by centrifugation at 300 g at 4° C. for 5 minutes in an Eppendorf 5804R Centrifuge (VWR International, The Netherlands). Number of cells were counted and expressed as amount of proliferated cells per ml of culture medium.

| Compound | proliferation of keratinocytes, BMOV compared with OVAN (1 mg/ml each) | amount of proliferated keratinocytes relative to the control situation |
| --- | --- | --- |
| Cc1occc(=O)c1[O-].Cc1occc(=O)c1[O-].[O]=[V+2] [BMOV, bis(maltolato) oxovanadium] | greater number of proliferated cells relative to treatment with OVAN; also recorded: more potent than OVAN | enhanced proliferation; also recorded: significantly increased |
| oxovanadium | – | enhanced proliferation; also recorded: significantly increased |
